In patent US9051290B2, “Biaryl phosphodiesterase inhibitors” (LEO PHARMA A/S, priority 2010, dated 2015):

Biological target: Human recombinant PDE4 (Genbank accession no NM—006203) (Homo sapiens, UniProt Q08499)
Test: PDE4 assay (SPA, cleavage of cAMP)
Type: biochemical
Conditions: 1 hour incubation, test compound up to 10 μM, cAMP 1×10^−5M, read-out: PDE4 IC50 range
Procedure: Human recombinant PDE4 (Genbank accession no NM_006203) was incubated for 1 hour with the test compound at concentrations up to 10 μM, with cAMP (1×10^−5M), and with a low amount (0.021 MBq) of radioactively labelled cAMP. At the end of the incubation, the cleavage of the substrate was evaluated by the binding of the AMP product to SPA beads, which generate chemoluminescence when bound to the radioactive tracer. The AMP product inhibited the binding of the radioactive tracer to the beads, and the luminescent signal was competed.
The results were calculated as the molar concentrations resulting in 50% inhibition of the substrate cleavage compared to controls samples, and are expressed as a range of IC50 (M).
The compounds of the present invention were tested in the PDE4 assay.

Sequence of Human recombinant PDE4 (Genbank accession no NM—006203) (Q08499 1-673 isoform Q08499-2): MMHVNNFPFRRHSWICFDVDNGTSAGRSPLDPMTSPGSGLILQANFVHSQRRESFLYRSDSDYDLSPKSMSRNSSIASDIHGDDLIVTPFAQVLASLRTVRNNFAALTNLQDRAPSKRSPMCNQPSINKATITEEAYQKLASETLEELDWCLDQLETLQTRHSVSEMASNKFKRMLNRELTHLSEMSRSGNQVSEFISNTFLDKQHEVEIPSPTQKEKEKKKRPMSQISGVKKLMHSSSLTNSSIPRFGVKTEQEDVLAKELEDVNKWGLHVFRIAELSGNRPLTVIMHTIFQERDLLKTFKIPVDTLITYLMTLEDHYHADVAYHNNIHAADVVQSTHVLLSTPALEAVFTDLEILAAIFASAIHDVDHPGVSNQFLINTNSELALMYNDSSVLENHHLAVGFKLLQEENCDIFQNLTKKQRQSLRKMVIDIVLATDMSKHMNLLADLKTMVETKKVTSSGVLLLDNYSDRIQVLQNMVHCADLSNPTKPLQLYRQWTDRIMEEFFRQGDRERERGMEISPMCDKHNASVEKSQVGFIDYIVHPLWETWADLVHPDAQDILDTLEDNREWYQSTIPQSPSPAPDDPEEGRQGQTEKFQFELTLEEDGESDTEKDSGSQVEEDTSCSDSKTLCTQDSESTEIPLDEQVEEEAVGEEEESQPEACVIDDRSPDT

`COc1ccc(-c2ccc3c(c2)CCC3=O)c(OCCC(C)C)c1OC` [Compound 120, 5-[3,4-Dimethoxy-2-(3-methyl-butoxy)-phenyl]-indan-1-one] and `COc1ccc(-c2ccc3c(c2)COC3=O)c(OCCC(C)C)c1OC` [Compound 131, 5-[3,4-Dimethoxy-2-(3-methyl-butoxy)-phenyl]-3H-isobenzofuran-1-one] cannot be ordered by IC50: less than 100 nM for the first, less than 100 nM for the second.

`COc1ccc(-c2ccc3c(c2)CNC3=O)c(OCc2ccc(C(N)=O)cc2)c1OC` [Compound 153, 4-[2,3-Dimethoxy-6-(1-oxo-2,3-dihydro-1H-isoindol-5-yl)-phenoxymethyl]-benzamide] and `COc1ccc(-c2ccc3c(c2)COC3=O)c(OCc2ccc(C(N)=O)cc2)c1OC` [Compound 136, 4-[2,3-Dimethoxy-6-(1-oxo-1,3-dihydro-isobenzofuran-5-yl)-phenoxymethyl]-benzamide] cannot be ordered by IC50: less than 100 nM for the first, less than 100 nM for the second.

`COc1ccc(-c2cccc3c2COC3=O)c(OCc2ccc(C(N)=O)cc2)c1OC` [Compound 116, 4-[2,3-Dimethoxy-6-(1-oxo-1,3-dihydro-isobenzofuran-4-yl)-phenoxymethyl]-benzamide] and `COc1ccc(-c2cccc3c2COC3=O)c(OCc2ccc(C(=O)N(C)C)cc2)c1OC` [Compound 118, 4-[2,3-Dimethoxy-6-(1-oxo-1,3-dihydro-isobenzofuran-4-yl)-phenoxymethyl]-N,N-dimethyl-benzamide] cannot be ordered by IC50: less than 100 nM for the first, less than 100 nM for the second.

`COc1ccc(-c2cccc3c2CCC3=O)c(OCC2(CNC(C)=O)CC2)c1OC` [Compound 185, N-{1-[2,3-Dimethoxy-6-(1-oxo-indan-4-yl)-phenoxymethyl]-cyclopropylmethyl}-acetamide] and `COc1ccc(-c2cccc3c2CCC3=O)c(OCC2(CNC(=O)C(C)C)CC2)c1OC` [Compound 183] cannot be ordered by IC50: less than 100 nM for the first, less than 100 nM for the second.

Compared with `COCC1(COc2c(-c3ccc4c(c3)CNC4=O)ccc(OC)c2OC)COC1` [Compound 216, 5-[3,4-Dimethoxy-2-(3-methoxymethyl-oxetan-3-ylmethoxy)-phenyl]-2,3-dihydro-isoindol-1-one], `COc1ccc(-c2ccc3c(c2)CCC3=O)c(OCC2(CO)COC2)c1OC` [Compound 129, 5-[2-(3-Hydroxymethyl-oxetan-3-ylmethoxy)-3,4-dimethoxy-phenyl]-indan-1-one] is higher in IC50: less than 100 nM for the first, 100 to 500 nM for the second. The first is the more potent here.

`COc1ccc(-c2ccc3c(c2)CCC3=O)c(OCc2ccc(C(=O)N(C)C)cc2)c1OC` [Compound 127, 4-[2,3-Dimethoxy-6-(1-oxo-indan-5-yl)-phenoxymethyl]-N,N-dimethyl-benzamide] and `COc1ccc(-c2ccc3c(c2)CCC3=O)c(OCc2cccc(C(=O)N(C)C)c2)c1OC` [Compound 128, 3-[2,3-Dimethoxy-6-(1-oxo-indan-5-yl)-phenoxymethyl]-N,N-dimethyl-benzamide] cannot be ordered by IC50: less than 100 nM for the first, less than 100 nM for the second.

`COc1ccc(-c2ccc(OC)c3c2CCC3=O)c(OCC(C)C)c1OC` [Compound 168, 4-(2-Isobutoxy-3,4-dimethoxy-phenyl)-7-methoxy-indan-1-one] and `COc1ccc(-c2cc(OC)c(OC)c3c2CCC3=O)c(OCC(C)C)c1OC` [Compound 167, 4-(2-Isobutoxy-3,4-dimethoxy-phenyl)-6,7-dimethoxy-indan-1-one] cannot be ordered by IC50: no less than 500 nM for the first, 100 to 500 nM for the second.

`COc1ccc(-c2cccc3c2CCC3=O)c(OCC2CCC2)c1OC` [Compound 102, 4-(2-Cyclobutylmethoxy-3,4-dimethoxy-phenyl)-indan-1-one] and `COc1ccc(-c2ccc3c(c2)CCC3=O)c(OCC2CCC2)c1OC` [Compound 122, 5-(2-Cyclobutylmethoxy-3,4-dimethoxy-phenyl)-indan-1-one] cannot be ordered by IC50: less than 100 nM for the first, less than 100 nM for the second.

`COc1ccc(-c2cccc3c2COC3=O)c(OCc2ccc(S(C)(=O)=O)cc2)c1OC` [Compound 115, 4-[2-(4-Methanesulfonyl-benzyloxy)-3,4-dimethoxy-phenyl]-3H-isobenzofuran-1-one] and `COc1ccc(-c2ccc3c(c2)COC3=O)c(OCc2ccc(S(C)(=O)=O)cc2)c1OC` [Compound 142, 5-[2-(4-Methanesulfonyl-benzyloxy)-3,4-dimethoxy-phenyl]-3H-isobenzofuran-1-one] cannot be ordered by IC50: less than 100 nM for the first, less than 100 nM for the second.

`COc1ccc(-c2cccc3c2CCC3=O)c(OCC(C)(C)C(=O)NC2CC2)c1OC` [Compound 203, N-Cyclopropyl-3-[2,3-dimethoxy-6-(1-oxo-indan-4-yl)-phenoxy]-2,2-dimethyl-propionamide] and `COc1ccc(-c2cccc3c2CCC3=O)c(OCC(C)(C)C(=O)N(C)C)c1OC` [Compound 202, 3-[2,3-Dimethoxy-6-(1-oxo-indan-4-yl)-phenoxy]-2,2,N,N-tetramethyl-propionamide] cannot be ordered by IC50: less than 100 nM for the first, less than 100 nM for the second.

`COc1ccc(-c2ccc3c(c2)CCC3=O)c(OCC(C)(C)C)c1OC` [Compound 121, 5-[2-(2,2-Dimethyl-propoxy)-3,4-dimethoxy-phenyl]-indan-1-one] and `CNC(=O)C(C)(C)COc1c(-c2ccc3c(c2)CCC3=O)ccc(OC)c1OC` [Compound 206, 3-[2,3-Dimethoxy-6-(1-oxo-indan-5-yl)-phenoxy]-2,2,N-trimethyl-propionamide] cannot be ordered by IC50: less than 100 nM for the first, less than 100 nM for the second.

`COc1ccc(-c2ccc3c(c2)CNC3=O)c(OCc2ccc(S(N)(=O)=O)cc2)c1OC` [Compound 161, 4-[2,3-Dimethoxy-6-(1-oxo-2,3-dihydro-1H-isoindol-5-yl)-phenoxymethyl]-benzenesulfonamide] and `COc1ccc(-c2ccc3c(c2)CNC3=O)c(OCc2cccc(S(N)(=O)=O)c2)c1OC` [Compound 158, 3-[2,3-Dimethoxy-6-(1-oxo-2,3-dihydro-1H-isoindol-5-yl)-phenoxymethyl]-benzenesulfonamide] cannot be ordered by IC50: less than 100 nM for the first, less than 100 nM for the second.

`COc1ccc(-c2ccc3c(c2)CNC3=O)c(OCC(C)(C)C)c1OC` [Compound 148, 5-[2-(2,2-Dimethyl-propoxy)-3,4-dimethoxy-phenyl]-2,3-dihydro-isoindol-1-one] and `COc1ccc(-c2ccc3c(c2)CNC3=O)c(OCC(C)C)c1OC` [Compound 174, 5-(2-Isobutoxy-3,4-dimethoxy-phenyl)-2,3-dihydro-isoindol-1-one] cannot be ordered by IC50: less than 100 nM for the first, less than 100 nM for the second.

`COc1ccc(-c2cccc3c2CCC3=O)c(OCC2(CNC(=O)OC(C)C)COC2)c1OC` [Compound 197, {3-[2,3-Dimethoxy-6-(1-oxo-indan-4-yl)-phenoxymethyl]-oxetan-3-ylmethyl}-carbamic acid isopropyl ester] and `CCOC(=O)NCC1(COc2c(-c3cccc4c3CCC4=O)ccc(OC)c2OC)COC1` [Compound 196, {3-[2,3-Dimethoxy-6-(1-oxo-indan-4-yl)-phenoxymethyl]-oxetan-3-ylmethyl}-carbamic acid ethyl ester] cannot be ordered by IC50: less than 100 nM for the first, less than 100 nM for the second.

`COc1ccc(-c2ccc3c(c2)COC3=O)c(OCCC(C)(C)C)c1OC` [Compound 135, 5-[2-(3,3-Dimethyl-butoxy)-3,4-dimethoxy-phenyl]-3H-isobenzofuran-1-one] and `COc1ccc(-c2ccc3c(c2)COC3=O)c(OCc2cccc(C(N)=O)c2)c1OC` [Compound 146, 3-[2,3-Dimethoxy-6-(1-oxo-1,3-dihydro-isobenzofuran-5-yl)-phenoxymethyl]-benzamide] cannot be ordered by IC50: less than 100 nM for the first, less than 100 nM for the second.

First: COc1ccc(-c2cccc3c2CNC3=O)c(OCC(C)C)c1OC [Compound 173, 4-(2-Isobutoxy-3,4-dimethoxy-phenyl)-2,3-dihydro-isoindol-1-one]
Second: COc1ccc(-c2cccc3c2CCC3=O)c(OCC2(C)COC2)c1OC [Compound 163, 4-[3,4-Dimethoxy-2-(3-methyl-oxetan-3-ylmethoxy)-phenyl]-indan-1-one]
The IC50 of the first is higher: 100 to 500 nM for the first, less than 100 nM for the second.

First: COc1ccc(-c2ccc3c(c2)CCC3=O)c(OCC(C)(C)C(=O)N(C)C)c1OC [Compound 207, 3-[2,3-Dimethoxy-6-(1-oxo-indan-5-yl)-phenoxy]-2,2,N,N-tetramethyl-propionamide]
Second: CNC(=O)c1ccc(COc2c(-c3ccc4c(c3)CCC4=O)ccc(OC)c2OC)cc1 [Compound 126, 4-[2,3-Dimethoxy-6-(1-oxo-indan-5-yl)-phenoxymethyl]-N-methyl-benzamide]
The IC50 of the first is higher: 100 to 500 nM for the first, less than 100 nM for the second. The second is the more potent here.

First: COc1ccc(-c2cccc3c2COC3=O)c(OCC2(C)COC2)c1OC [Compound 164, 4-[3,4-Dimethoxy-2-(3-methyl-oxetan-3-ylmethoxy)-phenyl]-3H-isobenzofuran-1-one]
Second: COCCOC(=O)NCC1(COc2c(-c3cccc4c3CCC4=O)ccc(OC)c2OC)COC1 [Compound 198, {3-[2,3-Dimethoxy-6-(1-oxo-indan-4-yl)-phenoxymethyl]-oxetan-3-ylmethyl}-carbamic acid 2-methoxy-ethyl ester]
The IC50 of the first is higher: 100 to 500 nM for the first, less than 100 nM for the second. The second is the more potent here.

`CCNC(=O)OCC1(COc2c(-c3cccc4c3CCC4=O)ccc(OC)c2OC)CC1` [Compound 179, Ethyl-carbamic acid 1-[2,3-dimethoxy-6-(1-oxo-indan-4-yl)-phenoxymethyl]-cyclopropylmethyl ester] and `CCNC(=O)OCC(C)(C)COc1c(-c2cccc3c2CCC3=O)ccc(OC)c1OC` [Compound 211, Ethyl-carbamic acid 3-[2,3-dimethoxy-6-(1-oxo-indan-4-yl)-phenoxy]-2,2-dimethyl-propyl ester] cannot be ordered by IC50: less than 100 nM for the first, less than 100 nM for the second.

`COc1ccc(-c2cccc3c2CCC3=O)c(OCc2ccc(S(N)(=O)=O)cc2)c1OC` [Compound 112, 4-[2,3-Dimethoxy-6-(1-oxo-indan-4-yl)-phenoxymethyl]-benzenesulfonamide] and `COc1ccc(-c2cccc3c2CCC3=O)c(OCc2cccc(C(N)=O)c2)c1OC` [Compound 114, 3-[2,3-Dimethoxy-6-(1-oxo-indan-4-yl)-phenoxymethyl]-benzamide] cannot be ordered by IC50: less than 100 nM for the first, less than 100 nM for the second.
